Laboratory results reported in ChEMBL document CHEMBL1134061, “Synthesis and biological evaluations of condensed pyridine and condensed pyrimidine-based HMG-CoA reductase inhibitors” (Bioorg Med Chem Lett, 2001).

How the values were obtained:
[1] = molecular target: T1, 3-hydroxy-3-methylglutaryl-coenzyme A reductase (Homo sapiens) (UniProt P04035); test: In vitro HMG-CoA reductase inhibitory activity required to inhibit cellular steroidgenesis in Hep G2 cells (human hepatoma cell line) with pravastatin as reference compound; assay type: cell-based; conditions: HepG2
T1 sequence (whole entry): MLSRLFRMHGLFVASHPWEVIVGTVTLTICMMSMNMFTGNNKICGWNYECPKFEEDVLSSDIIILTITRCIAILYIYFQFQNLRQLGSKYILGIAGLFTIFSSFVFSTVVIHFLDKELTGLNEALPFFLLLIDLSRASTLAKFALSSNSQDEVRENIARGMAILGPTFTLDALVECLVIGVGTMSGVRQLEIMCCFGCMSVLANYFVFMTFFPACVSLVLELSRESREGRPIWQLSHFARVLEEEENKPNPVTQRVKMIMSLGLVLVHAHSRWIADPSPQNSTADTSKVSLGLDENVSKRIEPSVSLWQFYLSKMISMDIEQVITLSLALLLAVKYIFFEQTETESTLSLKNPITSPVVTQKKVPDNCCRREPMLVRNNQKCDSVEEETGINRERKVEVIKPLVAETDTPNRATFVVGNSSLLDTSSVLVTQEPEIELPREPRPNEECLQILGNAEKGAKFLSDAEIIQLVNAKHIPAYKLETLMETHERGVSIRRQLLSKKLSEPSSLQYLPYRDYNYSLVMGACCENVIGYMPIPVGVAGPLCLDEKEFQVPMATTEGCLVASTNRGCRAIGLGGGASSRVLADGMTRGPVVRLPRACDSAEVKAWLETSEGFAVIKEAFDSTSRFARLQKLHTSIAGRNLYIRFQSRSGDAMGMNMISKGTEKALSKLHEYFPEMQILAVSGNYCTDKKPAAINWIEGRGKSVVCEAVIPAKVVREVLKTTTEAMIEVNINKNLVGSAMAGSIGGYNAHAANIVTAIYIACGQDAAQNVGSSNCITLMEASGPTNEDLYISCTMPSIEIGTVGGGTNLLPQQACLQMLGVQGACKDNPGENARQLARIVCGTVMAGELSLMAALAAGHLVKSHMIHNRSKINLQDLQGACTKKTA

[2] = molecular target: T2, 3-hydroxy-3-methylglutaryl-coenzyme A reductase (Rattus norvegicus) (UniProt P51639); test: In vitro rat HMG-CoA reductase inhibitory activity required to inhibit sterol synthesis in cell free system with pravastatin as reference compound
T2 sequence (whole entry): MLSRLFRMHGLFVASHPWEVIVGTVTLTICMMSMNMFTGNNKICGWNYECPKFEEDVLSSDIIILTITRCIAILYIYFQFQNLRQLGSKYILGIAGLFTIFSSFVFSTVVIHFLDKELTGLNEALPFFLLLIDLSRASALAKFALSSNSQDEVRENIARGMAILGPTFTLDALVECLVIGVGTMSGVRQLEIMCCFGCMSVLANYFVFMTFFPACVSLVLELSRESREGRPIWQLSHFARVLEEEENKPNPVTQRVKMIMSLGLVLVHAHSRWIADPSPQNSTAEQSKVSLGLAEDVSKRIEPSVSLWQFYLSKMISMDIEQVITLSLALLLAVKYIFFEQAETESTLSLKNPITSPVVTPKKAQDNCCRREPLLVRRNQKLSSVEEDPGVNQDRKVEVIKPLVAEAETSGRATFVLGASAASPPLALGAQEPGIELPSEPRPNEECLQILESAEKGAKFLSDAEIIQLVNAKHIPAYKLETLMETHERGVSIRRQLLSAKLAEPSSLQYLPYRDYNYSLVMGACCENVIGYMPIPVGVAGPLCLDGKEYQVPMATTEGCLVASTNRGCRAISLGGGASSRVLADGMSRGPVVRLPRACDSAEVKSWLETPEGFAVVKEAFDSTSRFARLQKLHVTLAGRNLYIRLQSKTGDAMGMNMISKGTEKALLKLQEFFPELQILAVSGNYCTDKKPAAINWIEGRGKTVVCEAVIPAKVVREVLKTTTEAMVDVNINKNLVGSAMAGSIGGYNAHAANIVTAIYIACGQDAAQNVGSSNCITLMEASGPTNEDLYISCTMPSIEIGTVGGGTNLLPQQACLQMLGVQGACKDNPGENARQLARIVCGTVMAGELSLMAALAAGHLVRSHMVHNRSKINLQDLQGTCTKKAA

[3] = molecular target: T2, 3-hydroxy-3-methylglutaryl-coenzyme A reductase (Rattus norvegicus); test: In vivo hepatic cholesterol synthesis inhibitory activity in male Sprague-Dawley rat after oral administration at a concentration of 2.0 mg/kg; assay type: functional, organism-based; parameters: dose 2 mg/kg
[4] = molecular target: T2, 3-hydroxy-3-methylglutaryl-coenzyme A reductase (Rattus norvegicus); test: In vivo hepatic cholesterol synthesis inhibitory activity in male Sprague-Dawley rat after oral administration at a concentration of 0.2 mg/kg; assay type: functional, organism-based; parameters: dose 0.2 mg/kg

Row | SMILES | Relative potency [1] | Relative potency [2] | inhibition [3] [%] | inhibition [4] [%]
1 | Cc1cc2nc(C3CC3)c(/C=C/[C@@H](O)C[C@@H](O)CC(=O)O)c(-c3ccc(F)cc3)n2n1 | 2 | 24 | 6.5 | 
2 | CC(C)(C)n1nc(C2CC2)c2c(-c3ccc(F)cc3)c(/C=C/[C@@H](O)C[C@@H](O)CC(=O)O)c(C3CC3)nc21 | 2 | 98 |  | 
3 | CC(C)c1nc2sc(-c3ccccc3)cc2c(-c2ccc(F)cc2)c1/C=C/[C@@H](O)C[C@@H](O)CC(=O)O | 1 | < 1 |  | 
4 | Cc1nn(-c2ccccn2)c2nc(C3CC3)c(/C=C/[C@@H](O)C[C@@H](O)CC(=O)O)c(-c3ccc(F)cc3)c12 | 4 | 229 |  | 
5 | Cc1nn2c(-c3ccc(F)cc3)c(/C=C/[C@@H](O)C[C@@H](O)CC(=O)O)c(C3CC3)nc2c1C | 3 | 25 |  | 
6 | CC(C)c1nc2c(c(C3CC3)nn2-c2ccccc2)c(-c2ccc(F)cc2)c1/C=C/[C@@H](O)C[C@@H](O)CC(=O)O | 7 | 55 |  | 
7 | CC(C)c1nc2onc(-c3ccccc3)c2c(-c2ccc(F)cc2)c1/C=C/[C@@H](O)C[C@@H](O)CC(=O)O | 1 | 83 | 52.3 | 33.7
8 | CC(C)c1cc2nc(C3CC3)c(/C=C/[C@@H](O)C[C@@H](O)CC(=O)O)c(-c3ccc(F)cc3)n2n1 | 1 | 6 |  | 21.8
9 | O=C(O)C[C@H](O)C[C@H](O)/C=C/c1c(C2CC2)nc2sc3c(c2c1-c1ccc(F)cc1)CCCCC3 | 2 | 23 |  | 
10 | CC(C)c1nc2cc(-c3ccccc3)nn2c(-c2ccc(F)cc2)c1/C=C/[C@@H](O)C[C@@H](O)CC(=O)O | 3 | 12 | 24.1 | -1.4
11 | CCc1c(C)sc2nc(C3CC3)c(/C=C/[C@@H](O)C[C@@H](O)CC(=O)O)c(-c3ccc(F)cc3)c12 | 38 | 65 |  | 
12 | CC(C)(C)n1nc(-c2ccccc2)c2c(-c3ccc(F)cc3)c(/C=C/[C@@H](O)C[C@@H](O)CC(=O)O)c(C3CC3)nc21 | < 1 | 75 |  | 
13 | CC(C)c1nc2c3c(nn2c(-c2ccc(F)cc2)c1/C=C/[C@@H](O)C[C@@H](O)CC(=O)O)CCCC3 | 1 | 30 |  | 
14 | CC(C)c1nc2sc3c(c2c(-c2ccc(F)cc2)c1/C=C/[C@@H](O)C[C@@H](O)CC(=O)O)CCCC3 | 19 | 48 |  | 
15 | CC(C)c1nc2cc(-c3ccco3)nn2c(-c2ccc(F)cc2)c1/C=C/[C@@H](O)C[C@@H](O)CC(=O)O | < 1 | 13 |  | 
16 | CC(C)c1nc2c(cnn2-c2ccccc2)c(-c2ccc(F)cc2)c1/C=C/[C@@H](O)C[C@@H](O)CC(=O)O | 10 | 228 |  | 
17 | Cc1sc2nc(C(C)C)c(/C=C/[C@@H](O)C[C@@H](O)CC(=O)O)c(-c3ccc(F)cc3)c2c1-c1ccccc1 | < 1 | 1 |  | 
18 | Cn1nc(-c2ccccc2)c2c(-c3ccc(F)cc3)c(/C=C/[C@@H](O)C[C@@H](O)CC(=O)O)c(C3CC3)nc21 | 14 | 300 | 11.5 | 
19 | Cc1nn2c(-c3ccc(F)cc3)c(/C=C/[C@@H](O)C[C@@H](O)CC(=O)O)c(C3CC3)nc2c1-c1ccccc1 | 3 | 64 |  | 
20 | O=C(O)C[C@H](O)C[C@H](O)/C=C/c1c(C2CC2)nc2sc3c(c2c1-c1ccc(F)cc1)CCC3 | 60 | 63 |  | 

Results, then the compound that gave them:

Row | Relative potency [1] | Relative potency [2] | inhibition [3] [%] | inhibition [4] [%] | SMILES
21 | 1 | 42 | 71.3 | 42.9 | CC(C)c1nc2c(c(C3CC3)nn2C)c(-c2ccc(F)cc2)c1/C=C/[C@@H](O)C[C@@H](O)CC(=O)O
22 | 15 | 71 | 48.1 | 41.1 | Cc1nn(C)c2nc(C(C)C)c(/C=C/[C@@H](O)C[C@@H](O)CC(=O)O)c(-c3ccc(F)cc3)c12
23 | 39 | 71 |  |  | CCn1ncc2c(-c3ccc(F)cc3)c(/C=C/[C@@H](O)C[C@@H](O)CC(=O)O)c(C(C)C)nc21
24 | 51 | 35 | 20.8 | 7.9 | CCc1c(C)sc2nc(C(C)C)c(/C=C/[C@@H](O)C[C@@H](O)CC(=O)O)c(-c3ccc(F)cc3)c12
25 | 12 | 162 |  |  | Cc1c2c(-c3ccc(F)cc3)c(/C=C/[C@@H](O)C[C@@H](O)CC(=O)O)c(C(C)C)nc2nn1-c1ccccc1
26 | 26 | 93 |  |  | CC(C)c1nc2c(c(-c3ccc(Cl)cc3)nn2C)c(-c2ccc(F)cc2)c1/C=C/[C@@H](O)C[C@@H](O)CC(=O)O
27 | < 1 | 4 |  |  | CC(C)c1nc2cc(C(C)(C)C)nn2c(-c2ccc(F)cc2)c1/C=C/[C@@H](O)C[C@@H](O)CC(=O)O
28 | 49 | 58 |  |  | CC(C)c1nc2sc3c(c2c(-c2ccc(F)cc2)c1/C=C/[C@@H](O)C[C@@H](O)CC(=O)O)CCC3
29 | 1 | 264 | 19.9 | 3.3 | Cc1nn(-c2ccccc2)c2nc(C(C)C)c(/C=C/[C@@H](O)C[C@@H](O)CC(=O)O)c(-c3ccc(F)cc3)c12
30 | 62 | 52 |  |  | CC(C)c1cc2c(-c3ccc(F)cc3)c(/C=C/[C@@H](O)C[C@@H](O)CC(=O)O)c(C(C)C)nc2s1
31 | 1 | 170 |  |  | Cc1noc2nc(C(C)C)c(/C=C/[C@@H](O)C[C@@H](O)CC(=O)O)c(-c3ccc(F)cc3)c12
32 | 17 | 63 | 45.1 | 16.4 | Cc1nn(Cc2ccccc2)c2nc(C(C)C)c(/C=C/[C@@H](O)C[C@@H](O)CC(=O)O)c(-c3ccc(F)cc3)c12
33 | 6 | 21 | 71.1 | 37 | CC(C)c1nc2c(c(-c3ccccc3)nn2C)c(-c2ccc(F)cc2)c1/C=C/[C@@H](O)C[C@@H](O)CC(=O)O
34 | 118 | 228 | 74.3 | 35.5 | Cc1nn(C)c2nc(C3CC3)c(/C=C/[C@@H](O)C[C@@H](O)CC(=O)O)c(-c3ccc(F)cc3)c12
35 | 149 | 154 | 48.7 |  | COc1ccc(-n2nc(C)c3c(-c4ccc(F)cc4)c(/C=C/[C@@H](O)C[C@@H](O)CC(=O)O)c(C(C)C)nc32)cc1
36 | 11 | 168 | 72.2 | 4.5 | Cc1nn(C(C)(C)C)c2nc(C3CC3)c(/C=C/[C@@H](O)C[C@@H](O)CC(=O)O)c(-c3ccc(F)cc3)c12
37 | 22 | 68 | 34.2 |  | Cc1cc2c(-c3ccc(F)cc3)c(/C=C/[C@@H](O)C[C@@H](O)CC(=O)O)c(C(C)C)nc2s1
38 | 3 | 27 |  | -6.1 | Cc1cc2nc(C(C)C)c(/C=C/[C@@H](O)C[C@@H](O)CC(=O)O)c(-c3ccc(F)cc3)n2n1
